From patent publication EP3178809A1, “HYBRID MOLECULE WITH STRUCTURAL AND ACTIVITY ELEMENTS OF RESVERATROL AND DIALLYL SULFIDE” (Albert-Ludwigs-Universität Freiburg, priority 2015, dated 2017)
Values joined by “and” are separate entries in the source; they are usually repeats but may differ in a detail not shown here. Equal entries are not always repeated.

Key:
NOX1 = target: T1, NOX1 (Homo sapiens, UniProt Q9Y5S8); experiment: Parallel control measurement of NOX1 activity / extracellular superoxide anion production; format: cell-based
T1 construct: endogenous in cells
T1 sequence (Q9Y5S8 1-564): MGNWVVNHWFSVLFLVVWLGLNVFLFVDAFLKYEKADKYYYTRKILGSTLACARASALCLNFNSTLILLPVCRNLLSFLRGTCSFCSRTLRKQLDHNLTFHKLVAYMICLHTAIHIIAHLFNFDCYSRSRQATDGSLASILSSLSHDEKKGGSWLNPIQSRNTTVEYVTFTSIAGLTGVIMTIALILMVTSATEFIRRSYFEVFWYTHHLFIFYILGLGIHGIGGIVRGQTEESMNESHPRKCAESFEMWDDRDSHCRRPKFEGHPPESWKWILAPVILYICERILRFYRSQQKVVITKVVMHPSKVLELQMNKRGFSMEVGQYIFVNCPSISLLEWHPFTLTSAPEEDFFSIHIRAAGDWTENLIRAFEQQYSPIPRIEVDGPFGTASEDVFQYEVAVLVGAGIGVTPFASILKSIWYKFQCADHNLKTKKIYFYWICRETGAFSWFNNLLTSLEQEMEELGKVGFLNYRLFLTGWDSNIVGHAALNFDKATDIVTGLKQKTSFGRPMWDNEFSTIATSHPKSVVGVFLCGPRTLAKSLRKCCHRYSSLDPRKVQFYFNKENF
T1 sequence (P13498 1-195 partner): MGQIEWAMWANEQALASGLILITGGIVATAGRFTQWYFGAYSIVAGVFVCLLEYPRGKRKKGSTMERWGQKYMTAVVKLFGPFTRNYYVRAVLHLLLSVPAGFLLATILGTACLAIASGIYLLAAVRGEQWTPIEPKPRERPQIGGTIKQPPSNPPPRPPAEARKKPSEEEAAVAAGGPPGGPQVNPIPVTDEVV
Protocol: Inkubationsbedingungen wie in Figur 11. Zusätzlich wurden 5 µM AEBSF oder 100 µM AEBSF zugegeben. 5 µM AEBSF führen zu einer Hemmung um nur 20 % von NOX1, während 100 µM mehr als 90 % hemmen, wie parallel durchgeführte Kontrollmessungen ergeben haben. Die geringfügige Hemmung durch 5 µM AEBSF reicht bereits aus, den Synergieeffekt aufzuheben und die Apoptoseinduktion auf das Niveau der alleinige Gabe von DADS zu drücken. Dies zeigt, dass tatsächlich die NOX-stimulierende Wirkung von Resveratrol für den Synergieeffekt notwendig war.
(§1) Die Messung der extrazellulären Superoxidanionenkonzentration von Tumorzellen sowie die Bestrahlungstechnik mit Niedrigdosis-Gammastrahlung wird in der Arbeit Temme and Bauer, 2013 beschrieben. Die Hemmung der NOD wird bei Scheit and Bauer, 2015, beschrieben. Viele Versuchsergebnisse wurden in den Figuren dargestellt.
Um zu klären, ob der durch das Hybridmolekül gebündelte Synergieeffekt tatsächlich durch die NOX-stimulierende Wirkung des von Resveratrol abgeleiteten Anteils mitgetragen wird, wurde die Wirkung des Hybridmoleküls in Gegenwart von 5 µM AEBSF untersucht. Für diese Hemmstoffkonzentration wurde in Parallelexperimenten ermittelt, dass sie eine Hemmung der extrazellulären Superoxidanionenproduktion um ca. 20 % zur Folge hat. […]

NO Dioxygenase = experiment: Test for inhibition of NO dioxygenase (enhanced effect of NO donor DEA NONOate on superoxide-producing cells); format: cell-based
Text: Die Messung erfordert, dass durch geeignete Maßnahmen, wie bei Scheit und Bauer, 2015 beschrieben, die Tumorzellkatalase maximal inhibiert, die Hemmwirkung von H2O2 auf ·NO und Peroxynitrit durch Anwesenheit eines Katalasemimetikums verhindert und de novo Synthese von ·NO durch die Anwesenheit des NOS Inhibitors L-NAME verhindert wird.
as §1

[1] = system: humane Magenkarzinomzellen MKN-45; experiment: Apoptosis induction in tumour cells (morphological criteria, duplicate assays); format: cell-based, human; details: for Konzentration, bei der der maximale Apoptose-auslösende Effekt erzielt wird: MKN-45, 3,5 Stunden Inkubation; for Apoptoseinduktion in Tumorzellen: MKN-45, 3 Stunden, 37 °C, 5 % CO2; for Konzentration für optimale Wirkung: induction of apoptosis in tumour cells, single agents, combinations with Resveratrol, or hybrid
Protocol: Nach 3 Stunden bei 37 ° C, 5 % CO2 wurden die Prozentsätze apoptotischer Zellen bestimmt. […] Nach 3 Stunden bei 37 ° C, 5 % CO2 wurden die Prozentsätze apoptotischer Zellen bestimmt.
Die Daten basieren allesamt auf der quantitativen Bestimmung der Apoptose mittels der klassischen morphologischen Kriterien Kernkondensation, Kernfragmentation und Membrane Blebbing nach definierten Inkubationszeiten bei 37°C.
Die Ansätze erfolgten bei einer Zelldichte von 125 000 Zellen/ml in 96-Loch-Platten mit einem Reaktionsvolumen von 100 µl. Alle Ansätze wurden als Doppelansätze geführt und pro Messpunkt wurden mindestens 200 Zellen morphologisch bewertet. Eine detaillierte Aufstellung der verwendeten Medien, Inhibitoren, Zellen ist in den Arbeiten Scheit and Bauer, 2015; Bauer und Zarkovic, 2014; Bauer et al., 2014; Bauer, 2015 beschrieben.
Um zu klären, ob das Hybridmolekül aus Struktur- und Wirkungselementen von Resveratrol und Diallyldisulfid in der Lage ist, Apoptose in Tumorzellen zu induzieren, und dabei zu prüfen, ob sich durch die Kombination der Einzelfunktionen in einem Molekül der Synergieeffekt bündeln ließ, wurden steigende Konzentrationen des Hybridmoleküls zu Magenkarzinomzellen der Linie MKN-45 gegeben. Die als Parallelansätze geführten Ansätze wurden sowohl ohne als auch in Anwesenheit von 2 mM des Singulettsauerstofffängers Histidin inkubiert, um zu prüfen, ob der durch das Hybridmolekül ausgelöste Effekt durch Singulettsauerstoff vermittelt wird. Zum Vergleich wurde das gleiche Experiment mit steigenden Konzentrationen DADS durchgeführt, ebenfalls mit und ohne Histidinzugabe. Nach 3,5 Stunden Inkubation wurde der Prozentsatz apoptotischer Zellen bestimmt.

[2] = target: T2, protektive Katalase von Tumorzellen (Homo sapiens, UniProt P04040); experiment: Inactivation of protective catalase: sensitisation of MKN-45 cells to peroxynitrite-induced apoptosis; format: cell-based; details: 150 µM DADS for 20 min or 50 mM 3-AT, apoptosis 100 min after PON
T2 construct: endogenous in cells; host or cells: MKN-45 (human gastric carcinoma cell line)
T2 sequence (P04040 2-527 limits assumed): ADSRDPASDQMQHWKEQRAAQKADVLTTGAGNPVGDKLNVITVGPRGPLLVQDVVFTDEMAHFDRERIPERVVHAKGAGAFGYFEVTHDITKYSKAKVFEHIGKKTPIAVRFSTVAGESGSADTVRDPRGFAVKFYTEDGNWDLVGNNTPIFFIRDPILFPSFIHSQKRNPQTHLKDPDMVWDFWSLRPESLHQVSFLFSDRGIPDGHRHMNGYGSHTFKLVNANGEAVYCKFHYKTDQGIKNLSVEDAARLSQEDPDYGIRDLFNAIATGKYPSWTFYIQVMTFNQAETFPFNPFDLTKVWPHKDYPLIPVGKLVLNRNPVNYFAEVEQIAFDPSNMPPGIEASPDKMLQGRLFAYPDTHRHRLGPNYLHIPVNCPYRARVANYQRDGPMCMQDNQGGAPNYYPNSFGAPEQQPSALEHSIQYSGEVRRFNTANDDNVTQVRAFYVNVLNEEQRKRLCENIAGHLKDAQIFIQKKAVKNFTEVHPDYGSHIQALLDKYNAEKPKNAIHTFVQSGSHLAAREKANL
Protocol: Figur 8: DADS führt zur Inaktivierung der protektiven Katalase von Tumorzellen • A. Humane MKN-45 Tumorzellen enthielten entweder zunächst keine Zusätze (Kontrolle), 50 mM des Katalasehemmers 3-AT oder wurden für 20 Minuten mit 150 µM DADS behandelt. Nach einem Waschschritt und der Verdünnung der Zellkonzentration auf 6000 Zellen / 100 µl Ansatz wurde Peroxynitrit (PON) in den angegebenen Konzentrationen zugegeben. Nach 100 Minuten erfolgte die Bestimmung der apoptotischen Zellen in Doppelansätzen. Wie die Kontrolle zeigt, sind die Tumorzellen vor der Apoptose-auslösenden Wirkung von Peroxynitrit geschützt.
Figur 8 A zeigt, dass die kurzzeitige Behandlung von Tumorzellen mit DADS den gleichen Effekt hat, wie die Zugabe des Katalasehemmstoffs 3-Aminotriazol (3-AT), nämlich die Zellen für die Apoptose-auslösende Wirkung von exogen zugegebenem Peroxynitrit (PON) zu aktivieren. Die Sensitivierung für die Wirkung von PON ermöglicht die selektive Testung der Inaktivierung der membranständigen Katalase von Tumorzellen (Heinzelmann and Bauer, 2010; Böhm et al., 2015). Im Gegensatz zu DADS führt DAS zu keiner Inaktivierung der Katalase (Figur 8 F). […]

[3] = system: nichtmaligne, diploide humane Fibroblasten Alpha-1; experiment: Apoptosis induction in non-malignant cells (morphological criteria); format: cell-based, human; details: Alpha-1 fibroblasts, 3 Stunden, 37 °C, 5 % CO2
Protocol: Figur 6: Diallyldisulfid und Dipropyldisulfid, nicht aber Diallylsulfid lösen selektiv in Tumorzellen interzelluläres Signaling und Apoptose aus. • A. 12 500 humane Magenkarzinomzellen MKN-45 oder 10 000 nichtmaligne, diploide humane Fibroblasten Alpha-1 wurden in Doppelansätzen in Serum-haltigen Medium mit den angegebenen Konzentrationen an Diallyldisulfid (DADS), Dipropyldisulfid (DPDS) oder Diallylsulfid (DAS) versetzt. Nach 3 Stunden bei 37 ° C, 5 % CO2 wurden die Prozentsätze apoptotischer Zellen bestimmt. […] Nach 3 Stunden bei 37 ° C, 5 % CO2 wurden die Prozentsätze apoptotischer Zellen bestimmt. Das Ergebnis zeigt, dass die durch DADS ausgelöste Apoptose von der Wirkung von Singulettsauerstoff, Superoxidanionen, Caspase-8, NO und HOCI abhängig ist.
Die Daten basieren allesamt auf der quantitativen Bestimmung der Apoptose mittels der klassischen morphologischen Kriterien Kernkondensation, Kernfragmentation und Membrane Blebbing nach definierten Inkubationszeiten bei 37°C. Parallel wurden diese Kriterien mithilfe der TUNEL-Reaktion gesichert, wodurch die für die Apoptose charakteristischen DNA-Strangbrüche nachgewiesen wurden, und die Abhängigkeit der Apoptoseinduktion von Caspase-3 und Caspase-9 überprüft, wodurch sichergestellt war, dass die Apoptose über den mitochondrialen Weg abläuft. […]

## NCCc1ccc(S(=O)(=O)F)cc1 [AEBSF, 4-(2-Aminoethyl)benzenesulfonyl fluoride]
NOX1; 5 µM
  Hemmung von NOX1 / der extrazellulären Superoxidanionenproduktion: 20%
NOX1; 100 µM
  Hemmung von NOX1 / der Superoxidanionensynthese: > 95% and > 90%

## C=CCSSCC=C [DADS, Diallyldisulfid]
NO Dioxygenase
  Hemmung der NO Dioxygenase: Hemmung dieses Enzyms
[1]; Homo sapiens, MKN-45, 3.5 h, read-out: Konzentration für den gleichen Effekt (ca. 40 Prozent des Maximalwertes der Apoptoseinduktion)
  EC40: 1.1 µM
[1]; alleinige Gabe
  Konzentration, bei der der maximale Apoptose-auslösende Effekt erzielt wird: 10 µM
[1]
  Apoptoseinduktion in Tumorzellen: konzentrationsabhängig zur Apoptose
[2]
  Wirkung auf die protektive Katalase (sensitisation to peroxynitrite): gleichen Effekt wie der Katalasehemmstoff
[3]
  Apoptoseinduktion in normalen Zellen: nicht aber bei den normalen Zellen

## C=CCSCC=C [DAS, Diallylsulfid]
[1]
  Apoptoseinduktion in Tumorzellen: keine Aktivität
[2]
  Wirkung auf die protektive Katalase (sensitisation to peroxynitrite): keine Wirkung auf die protektive Katalase

## CCCSSCCC [DPDS, Dipropyldisulfid]
[1]
  Apoptoseinduktion in Tumorzellen: konzentrationsabhängig zur Apoptose
[3]
  Apoptoseinduktion in normalen Zellen: nicht aber bei den normalen Zellen

## C=CCSSCCCOc1cc(/C=C/c2ccc(O)cc2)cc(OCCCSSCC=C)c1 [Hybridmolekül]
[1]; 1 nM, MKN-45, 3,5 Stunden
  Prozent des Maximalwertes der Apoptoseinduktion: ca. 40 Prozent
[1]
  Konzentration, bei der der maximale Apoptose-auslösende Effekt erzielt wird: 0.01 µM
  Konzentration für optimale Wirkung: 3 to 30 nM
[1]; plus 0,9 µM Resveratrol, 0.3 µM DADS or 2,5 µM NOR-NOHA, MKN-45, 3,5 Stunden
  Steigerung der Wirkung durch Zugabe von Einzelkomponenten: nicht steigern
[1]; shift of concentration-effect curves, apoptosis in MKN-45
  wirksamer als Diallyldisulfid: ~1000 -fach

## O=c1c(O)c(-c2ccc(O)c(O)c2)oc2cc(O)cc(O)c12 [Quercitin]
NO Dioxygenase
  Hemmung der NO Dioxygenase: Hemmung dieses Enzyms

## CC(=O)O[C@H]1C(=O)[C@@]2(C)[C@H]([C@H](OC(=O)c3ccccc3)[C@]3(O)C[C@H](OC(=O)[C@H](O)[C@@H](NC(=O)c4ccccc4)c4ccccc4)C(C)=C1C3(C)C)[C@]1(OC(C)=O)CO[C@@H]1C[C@@H]2O [Taxol]
NO Dioxygenase
  Hemmung der NO Dioxygenase: Hemmung dieses Enzyms
[1]; from Tabelle 2
  wirksamer in Bezug auf Induktion der Apoptose in Tumorzellen als Diallyldisulfid: ≥ 10 -fach
[1]
  Konzentration für optimale Wirkung: 900 to 3800 nM

## Epothilon B
NO Dioxygenase
  Hemmung der NO Dioxygenase: Hemmung dieses Enzyms
